Results taken from paper PMC10598672, “A hybrid energy-based and AI-based screening approach for the discovery of novel inhibitors of JAK3” (Frontiers in Medicine, 2023).

Legend:
JAK3 [1] = target: T1, JAK3 (Homo sapiens, UniProt P52333); test: HTRF kinase assay, inhibition rate at […]; type: biochemical; conditions: read-out: Inhibit rate (%)
T1 sequence (P52333 1-1124): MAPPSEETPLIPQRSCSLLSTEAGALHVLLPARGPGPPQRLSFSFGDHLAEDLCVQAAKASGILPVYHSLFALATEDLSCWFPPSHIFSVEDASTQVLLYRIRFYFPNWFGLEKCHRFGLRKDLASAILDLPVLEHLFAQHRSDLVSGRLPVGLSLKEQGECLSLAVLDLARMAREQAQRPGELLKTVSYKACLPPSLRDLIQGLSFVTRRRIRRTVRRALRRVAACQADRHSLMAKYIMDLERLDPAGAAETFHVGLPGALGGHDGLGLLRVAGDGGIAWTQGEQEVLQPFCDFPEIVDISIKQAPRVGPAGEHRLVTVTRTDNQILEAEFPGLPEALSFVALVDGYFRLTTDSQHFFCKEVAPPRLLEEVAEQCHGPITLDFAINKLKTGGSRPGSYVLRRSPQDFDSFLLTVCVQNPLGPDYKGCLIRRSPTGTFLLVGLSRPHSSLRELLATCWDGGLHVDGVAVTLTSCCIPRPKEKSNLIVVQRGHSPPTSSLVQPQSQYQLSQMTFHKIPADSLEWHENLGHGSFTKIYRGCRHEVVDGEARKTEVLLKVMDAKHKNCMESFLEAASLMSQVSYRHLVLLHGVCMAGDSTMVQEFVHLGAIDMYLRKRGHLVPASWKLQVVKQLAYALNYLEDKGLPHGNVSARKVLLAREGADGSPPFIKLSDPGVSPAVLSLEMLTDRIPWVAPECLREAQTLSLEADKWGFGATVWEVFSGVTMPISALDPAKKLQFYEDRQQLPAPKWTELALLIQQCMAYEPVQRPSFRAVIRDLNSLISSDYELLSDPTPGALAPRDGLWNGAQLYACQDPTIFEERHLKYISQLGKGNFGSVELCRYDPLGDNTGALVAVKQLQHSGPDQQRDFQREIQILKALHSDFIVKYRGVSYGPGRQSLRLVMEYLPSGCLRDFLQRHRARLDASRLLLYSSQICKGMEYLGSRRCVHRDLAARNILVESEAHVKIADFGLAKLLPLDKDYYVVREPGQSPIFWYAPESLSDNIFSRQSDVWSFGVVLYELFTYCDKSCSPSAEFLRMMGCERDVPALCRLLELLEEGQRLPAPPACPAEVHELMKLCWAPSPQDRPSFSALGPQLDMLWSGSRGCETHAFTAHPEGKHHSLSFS

JAK3 [2] = target: T1, JAK3; test: HTRF kinase assay (Cryptate/XL665), dose-response IC50; type: biochemical

inhibition at 25 µM (JAK3 [1]) | Compound | IC50 (JAK3 [2])
93.37 ± 0.01% | CN1CCC(Nc2nc(Nc3ccc(Oc4ccccc4)cc3)c3c(=O)[nH]cc(Br)c3n2)CC1 [compound 4] | –
75.2 ± 0.85% | CN1CCN(c2ccc(Nc3ncc4cc(C#N)c(=O)n(C5CCCC5)c4n3)cc2)CC1 [compound 5] | –
– | CC(=O)Nc1cc(Oc2ccc3c(C(=O)Nc4ccc(CN5CCN(C)CC5)c(C(F)(F)F)c4)cccc3c2)ncn1 [compound 8] | 4.11 µM
